# Laboratory results as given in patent US8673586B2, “Compounds that interact with kinases” (Alchemia Limited, priority 2002, dated 2014).
# How the values were obtained:
# PDGF-Ralpha = target: T1, PDGF-Ralpha (Homo sapiens, UniProt P16234); assay: PDGF-Ralpha kinase assay, 33P-ATP incorporation, residual activity; type: biochemical; conditions: tested at 25 micromolar
# T1 construct: made in house
# Method: (§1) Compounds were tested in vitro as follows.
# (§2) Recombinant protein kinases, which were expressed as fusion proteins in SF9 insect cells or E. coli, were used for all in vitro assays. The purity and identity of each kinase was checked by SDS-PAGE/silver staining and by western blot analysis with specific antibodies.
# (§3) All kinase assays except for p38a (see below) were performed in 96-well micro-titre plates. The assay components included assay buffer, ATP, test compound, enzyme and substrate.
# (§4) The assay for all enzymes (except for the PKC see below, contained 60 mM HEPES-NaOH, pH 7.5, 3 mM MgCl2, 3 mM MnCl2, 3 μM Na-orthovanadate, 1 mM […], 0.1 μM [γ-^33P]-ATP (approx. 5×10^5 cpm per well).
# (§5) The reaction cocktails were incubated at 30° C. for 80 minutes. The reaction was stopped with 50 μl of 2% (v/v) H3PO4, plates were aspirated and washed twice with 200 μl of H2O or 0.9% (w/v) NaCl. Incorporation of ^33Pi was determined with a microplate scintillation counter.
# (§6) All data is presented as residual activity, which is the activity of the enzyme in the presence of the stipulated concentration of inhibitor or compound. 100% activity is the maximum activity of the enzyme in the absence of any inhibitor or compound.
# (§7) In all experiments the Z′ value was calculated according to Zhang et al to (J-H Zhang, T. D. Y Chung, K. R. Oldenburg (1999) Journal of Biomolecular Screening 4:67-73) using the standard deviations and mean values of the positive and negative controls. Z′=1−(3*Stdevneg+3*Stdevpos)/(Meanpos−Meanneg)
# (§8) Only data where the Z′ value was >0.5 was used.
# TIE2 = target: T2, TIE2 (Homo sapiens, UniProt Q02763); assay: TIE2 kinase assay, 33P-ATP incorporation, residual activity; type: biochemical
# T2 construct: made in house
# Method: as §1, §2, §3, §4, §5, §6, §7, §8
# ABL = ABL (Homo sapiens, UniProt P00519); assay: ABL kinase assay, 33P-ATP incorporation, residual activity; type: biochemical; conditions: tested at 25 micromolar
# Method: as §1, §2, §3, §4, §5, §6, §7, §8
# PKC-beta1 = PKC-beta1 (Homo sapiens, UniProt P05771); assay: PKC-beta1 kinase assay, 33P-ATP incorporation, residual activity; type: biochemical; conditions: tested at 25 micromolar
# PKC-beta1, sequence (P05771 whole entry): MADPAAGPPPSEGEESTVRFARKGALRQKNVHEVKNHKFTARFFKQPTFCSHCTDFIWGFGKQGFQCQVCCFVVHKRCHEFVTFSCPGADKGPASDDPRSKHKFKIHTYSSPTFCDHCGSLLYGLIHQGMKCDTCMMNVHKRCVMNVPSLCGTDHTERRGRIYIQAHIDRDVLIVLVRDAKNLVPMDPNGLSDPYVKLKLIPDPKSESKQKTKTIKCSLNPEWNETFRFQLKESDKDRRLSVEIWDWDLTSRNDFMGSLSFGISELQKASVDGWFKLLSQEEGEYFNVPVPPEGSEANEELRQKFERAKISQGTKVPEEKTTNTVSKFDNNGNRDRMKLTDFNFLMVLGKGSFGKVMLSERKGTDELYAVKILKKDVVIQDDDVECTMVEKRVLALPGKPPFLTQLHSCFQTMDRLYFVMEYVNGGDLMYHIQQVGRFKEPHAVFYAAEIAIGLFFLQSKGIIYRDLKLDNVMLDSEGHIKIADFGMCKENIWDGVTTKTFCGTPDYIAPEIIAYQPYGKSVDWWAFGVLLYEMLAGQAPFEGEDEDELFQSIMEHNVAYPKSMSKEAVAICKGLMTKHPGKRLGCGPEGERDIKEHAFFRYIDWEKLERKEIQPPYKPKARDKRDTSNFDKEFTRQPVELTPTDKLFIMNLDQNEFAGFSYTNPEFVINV
# Method: as §1, §2, §3
# The assay for the PKCs contained 60 mM HEPES-NaOH, pH 7.5, 1 mM EDTA, 1.25 mM EGTA, 5 mM MgCl2, 1.32 mM CaCl2, 5 μg/ml Phosphatidylserine, 1 μg/ml 1.2 Dioleyl-glycerol, 1.2 mM DTT, 50 μg/ml PEG20000, 0.1 μM [γ-^33P]-ATP (approx. 5×10^5 cpm per well).
# as §5, §6, §7, §8
# VEGF-R2 = target: T3, VEGF-R2 (Homo sapiens, UniProt P35968); assay: VEGF-R2 kinase assay, 33P-ATP incorporation, residual activity; type: biochemical; design: key: % residual kinase activity (100% = no inhibitor)
# T3 construct: made in house
# T3 sequence (P35968 20-1356): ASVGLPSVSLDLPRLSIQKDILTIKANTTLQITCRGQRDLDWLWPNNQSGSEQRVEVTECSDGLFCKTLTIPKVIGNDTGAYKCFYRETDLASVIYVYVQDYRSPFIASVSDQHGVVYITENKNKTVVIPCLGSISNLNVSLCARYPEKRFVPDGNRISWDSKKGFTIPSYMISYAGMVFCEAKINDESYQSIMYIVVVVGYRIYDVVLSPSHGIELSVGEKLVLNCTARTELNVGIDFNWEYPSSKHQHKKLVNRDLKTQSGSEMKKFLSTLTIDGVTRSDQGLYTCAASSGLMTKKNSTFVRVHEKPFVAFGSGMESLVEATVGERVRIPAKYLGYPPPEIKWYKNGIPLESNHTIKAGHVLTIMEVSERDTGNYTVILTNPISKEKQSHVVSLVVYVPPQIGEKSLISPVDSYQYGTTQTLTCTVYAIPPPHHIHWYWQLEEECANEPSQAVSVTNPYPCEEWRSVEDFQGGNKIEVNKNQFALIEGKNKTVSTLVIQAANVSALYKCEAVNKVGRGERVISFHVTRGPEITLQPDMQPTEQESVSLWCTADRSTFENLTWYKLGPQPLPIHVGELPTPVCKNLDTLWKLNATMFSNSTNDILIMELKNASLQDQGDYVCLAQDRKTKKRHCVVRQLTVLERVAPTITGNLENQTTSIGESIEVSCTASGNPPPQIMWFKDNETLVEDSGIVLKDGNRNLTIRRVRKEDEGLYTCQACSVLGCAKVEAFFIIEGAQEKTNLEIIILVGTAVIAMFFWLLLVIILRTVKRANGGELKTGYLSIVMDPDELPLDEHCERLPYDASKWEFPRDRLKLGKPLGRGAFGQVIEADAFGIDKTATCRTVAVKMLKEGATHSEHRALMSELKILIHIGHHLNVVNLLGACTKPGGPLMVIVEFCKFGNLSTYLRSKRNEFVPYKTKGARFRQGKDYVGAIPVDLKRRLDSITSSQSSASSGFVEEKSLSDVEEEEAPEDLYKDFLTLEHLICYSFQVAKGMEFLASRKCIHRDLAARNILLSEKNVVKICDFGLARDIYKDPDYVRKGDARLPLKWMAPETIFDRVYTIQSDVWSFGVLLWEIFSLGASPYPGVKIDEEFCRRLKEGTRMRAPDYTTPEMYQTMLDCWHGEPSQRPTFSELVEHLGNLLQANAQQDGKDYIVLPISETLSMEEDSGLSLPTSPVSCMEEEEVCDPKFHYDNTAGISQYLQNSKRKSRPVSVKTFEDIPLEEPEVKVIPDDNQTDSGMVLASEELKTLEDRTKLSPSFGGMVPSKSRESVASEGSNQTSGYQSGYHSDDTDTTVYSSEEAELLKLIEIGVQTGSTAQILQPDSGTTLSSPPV
# Method: as §1, §2, §3, §4, §5, §6, §7, §8
# EGF-R = EGF-R (Homo sapiens, UniProt P00533); assay: EGF-R kinase assay, 33P-ATP incorporation, residual activity; type: biochemical; conditions: tested at 25 micromolar
# EGF-R, sequence (P00533 25-1210, species assumed): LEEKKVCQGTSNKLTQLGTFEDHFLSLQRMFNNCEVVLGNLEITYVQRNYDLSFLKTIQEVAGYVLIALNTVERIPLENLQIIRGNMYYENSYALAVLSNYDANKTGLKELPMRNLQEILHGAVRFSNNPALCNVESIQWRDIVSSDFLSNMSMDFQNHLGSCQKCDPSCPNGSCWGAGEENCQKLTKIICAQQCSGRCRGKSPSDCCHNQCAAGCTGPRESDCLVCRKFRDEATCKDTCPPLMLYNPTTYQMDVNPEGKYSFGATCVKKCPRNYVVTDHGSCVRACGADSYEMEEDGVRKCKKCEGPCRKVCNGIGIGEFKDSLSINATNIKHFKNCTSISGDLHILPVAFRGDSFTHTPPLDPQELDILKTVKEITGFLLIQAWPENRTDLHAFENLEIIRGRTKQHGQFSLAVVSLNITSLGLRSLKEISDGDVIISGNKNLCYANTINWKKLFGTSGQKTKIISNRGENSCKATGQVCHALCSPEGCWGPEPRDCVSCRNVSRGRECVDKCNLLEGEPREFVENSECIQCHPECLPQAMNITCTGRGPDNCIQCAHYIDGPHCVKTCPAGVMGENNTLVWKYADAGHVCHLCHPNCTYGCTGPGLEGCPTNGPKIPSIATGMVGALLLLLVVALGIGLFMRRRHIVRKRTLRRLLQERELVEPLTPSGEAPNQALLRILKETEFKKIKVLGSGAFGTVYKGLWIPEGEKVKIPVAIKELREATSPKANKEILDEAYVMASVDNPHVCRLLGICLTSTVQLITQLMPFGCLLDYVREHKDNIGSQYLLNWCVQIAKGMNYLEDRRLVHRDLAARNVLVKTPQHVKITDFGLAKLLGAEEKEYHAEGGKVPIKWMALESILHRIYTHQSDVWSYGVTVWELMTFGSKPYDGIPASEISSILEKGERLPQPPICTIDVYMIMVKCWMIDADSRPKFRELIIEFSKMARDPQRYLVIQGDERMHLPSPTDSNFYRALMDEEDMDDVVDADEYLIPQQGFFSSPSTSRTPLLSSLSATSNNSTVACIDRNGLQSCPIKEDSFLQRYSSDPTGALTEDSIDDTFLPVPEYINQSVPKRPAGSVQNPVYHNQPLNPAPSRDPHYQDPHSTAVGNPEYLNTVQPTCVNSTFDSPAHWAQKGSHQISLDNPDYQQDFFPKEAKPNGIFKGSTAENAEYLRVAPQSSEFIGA
# Method: as §1, §2, §3, §4, §5, §6, §7, §8
# KIT = target: T4, KIT (Homo sapiens, UniProt P10721); assay: KIT kinase assay, 33P-ATP incorporation, residual activity; type: biochemical
# T4 construct: made in house
# Method: as §1, §2, §3, §4, §5, §6, §7, §8
# CDK2/CycA = CDK2/CycA (Homo sapiens, UniProt P24941); assay: CDK2/CycA kinase assay, 33P-ATP incorporation, residual activity; type: biochemical; conditions: tested at 25 micromolar
# Method: as §1, §2, §3, §4, §5, §6, §7, §8
# MET = target: T5, MET (Homo sapiens, UniProt P08581); assay: MET kinase assay, 33P-ATP incorporation, residual activity; type: biochemical; design: key: % residual kinase activity (100% = no inhibitor); conditions: tested at 25 micromolar
# T5 construct: made in house
# T5 sequence (P08581 25-1390): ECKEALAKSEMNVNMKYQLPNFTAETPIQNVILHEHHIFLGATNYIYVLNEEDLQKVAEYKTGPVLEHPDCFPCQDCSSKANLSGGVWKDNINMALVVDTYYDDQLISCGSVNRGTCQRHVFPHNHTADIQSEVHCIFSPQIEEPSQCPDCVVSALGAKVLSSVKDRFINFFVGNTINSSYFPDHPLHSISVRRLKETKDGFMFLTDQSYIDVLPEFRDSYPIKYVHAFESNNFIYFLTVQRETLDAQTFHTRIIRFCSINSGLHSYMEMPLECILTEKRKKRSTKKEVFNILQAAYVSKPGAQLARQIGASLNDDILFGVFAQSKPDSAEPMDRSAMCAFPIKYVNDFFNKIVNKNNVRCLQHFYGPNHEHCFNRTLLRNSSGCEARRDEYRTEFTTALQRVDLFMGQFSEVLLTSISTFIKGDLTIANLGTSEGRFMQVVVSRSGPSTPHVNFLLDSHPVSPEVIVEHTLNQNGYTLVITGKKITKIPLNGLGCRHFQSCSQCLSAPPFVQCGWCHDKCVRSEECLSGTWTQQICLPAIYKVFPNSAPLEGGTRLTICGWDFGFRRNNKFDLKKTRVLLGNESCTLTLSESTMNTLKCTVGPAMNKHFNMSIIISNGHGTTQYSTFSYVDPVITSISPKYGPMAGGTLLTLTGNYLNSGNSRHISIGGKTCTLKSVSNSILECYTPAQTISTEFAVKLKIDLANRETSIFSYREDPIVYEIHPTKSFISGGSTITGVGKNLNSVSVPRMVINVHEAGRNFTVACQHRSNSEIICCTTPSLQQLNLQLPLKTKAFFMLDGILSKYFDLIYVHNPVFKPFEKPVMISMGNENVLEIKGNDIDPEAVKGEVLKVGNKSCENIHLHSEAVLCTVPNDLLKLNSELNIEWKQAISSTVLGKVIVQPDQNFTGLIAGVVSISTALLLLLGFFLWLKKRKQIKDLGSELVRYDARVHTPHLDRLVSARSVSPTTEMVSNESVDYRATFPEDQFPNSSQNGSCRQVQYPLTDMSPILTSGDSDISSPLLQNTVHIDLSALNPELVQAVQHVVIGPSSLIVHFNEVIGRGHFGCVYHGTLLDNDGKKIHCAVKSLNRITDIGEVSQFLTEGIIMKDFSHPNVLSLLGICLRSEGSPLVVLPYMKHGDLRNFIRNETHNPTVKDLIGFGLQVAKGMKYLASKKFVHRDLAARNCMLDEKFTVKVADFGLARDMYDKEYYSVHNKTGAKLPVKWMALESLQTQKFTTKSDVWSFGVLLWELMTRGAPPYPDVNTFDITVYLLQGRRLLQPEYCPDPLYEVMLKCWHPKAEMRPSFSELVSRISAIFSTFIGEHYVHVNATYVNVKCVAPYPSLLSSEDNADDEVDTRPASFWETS
# Method: as §1, §2, §3, §4, §5, §6, §7, §8
# [1] = target: mitogen-activated protein kinase p38α (Homo sapiens, UniProt Q16539); assay: p38α assay, NanoCarrier 2080 format, fluorescence polarization (2D-FIDA anisotropy); type: biochemical
# mitogen-activated protein kinase p38α, sequence (Q16539 whole entry, species assumed): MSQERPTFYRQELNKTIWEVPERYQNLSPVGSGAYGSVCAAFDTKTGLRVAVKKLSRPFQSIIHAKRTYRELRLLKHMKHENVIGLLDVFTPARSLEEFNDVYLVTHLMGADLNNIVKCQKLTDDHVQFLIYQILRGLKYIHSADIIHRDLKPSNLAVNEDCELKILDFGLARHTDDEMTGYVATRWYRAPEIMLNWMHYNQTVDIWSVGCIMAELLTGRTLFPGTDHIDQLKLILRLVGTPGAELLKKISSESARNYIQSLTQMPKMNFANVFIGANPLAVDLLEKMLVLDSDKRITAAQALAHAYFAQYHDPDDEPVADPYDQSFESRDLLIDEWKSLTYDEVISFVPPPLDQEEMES
# Method: as §1, §2
# The mitogen-activated protein kinase p38α assays were done in a proprietary microassay NanoCarrier™ 2080 format. In these assays phosphorylation was detected by a phospho-substrate specific monoclonal antibody in an indirect competition assay. The degree of binding of the antibody to the phospho-substrate was measured by fluorescence polarization using 2D-FIDA anisotrophy. In these experiments the final concentration of the enzyme was 1.6 nM and the substrate was 2 μM.
# as §6, §7, §8
# PKCα = PKCα (Homo sapiens, UniProt P17252); conditions: inhibitor concentration 1 μM; cited from earlier work
# MAPKAPK1b = MAPKAPK1b (Homo sapiens, UniProt P51812); conditions: inhibitor concentration 1 μM; cited from earlier work
# GSK3β = GSK3β (Homo sapiens, UniProt P49841); conditions: inhibitor concentration 1 μM; cited from earlier work
# MSK-1 = MSK-1 (Homo sapiens, UniProt O75582); conditions: inhibitor concentration 1 μM; cited from earlier work
# S6K1 = S6K1 (Homo sapiens, UniProt P23443); conditions: inhibitor concentration 1 μM; cited from earlier work
# [2] = compounds marked !: tested at 2.5 micromolar
Compound,PDGFalpha (PDGF-Ralpha),Tie2 (TIE2; tested at 25 micromolar),ABL (ABL),PKC (PKC-beta1),VEGF (VEGF-R2; tested at 25 micromolar),EGF-R (EGF-R),c-Kit (KIT; tested at 25 micromolar),CDK2 (CDK2/CycA),MET (MET),P38 ([1]; tested at 25 micromolar),Tie2 (TIE2; [2]),c-Kit (KIT; [2]),further results
CCCc1c(C(N)=O)nnn1[C@@H]1O[C@H](Cn2c(-c3ccc(F)c(C(F)(F)F)c3)nc3cc(C(N)=O)ccc32)[C@@H](O)[C@H]1O [compound 456],113,91,107,104,96,96,92,28,103,–,–,–,–
Nc1ncnc2c1ncn2[C@@H]1O[C@H](CN2C(=O)C(Cc3ccccc3)N(Cc3ccccc3Sc3ccc(Cl)cc3)C2=O)[C@@H](O)[C@H]1O (stereo partly shown) [compound 604],46,3,49,50,18,27,13,30,46,100,–,–,–
Nc1ncnc2c1ncn2[C@@H]1O[C@H](CN2C(=O)C(Cc3ccccc3)N(Cc3cccs3)C2=O)[C@@H](O)[C@H]1O (stereo partly shown) [compound 605],56,5,55,27,14,20,18,26,54,100,–,–,–
NC(=O)c1nnn([C@@H]2O[C@H](Cn3c(-c4ccc(OCc5ccccc5)cc4)nc4cc(Cl)c(Cl)cc43)[C@@H](O)[C@H]2O)c1-c1ccccc1 [compound 668],–,–,–,–,–,–,–,–,–,–,1,16,–
NC(=O)c1nnn([C@@H]2O[C@H](Cn3c(-c4ccc(OCc5ccccc5)cc4)nc4cc(Cl)c(Cl)cc43)[C@@H](O)[C@H]2O)c1-c1ccc(Cl)cc1 [compound 669],–,–,–,–,–,–,–,–,–,–,1,11,"VEGF (VEGF-R2; [2]): 34; P38 [1, 2]: 97"
COc1ccc(-c2c(C(N)=O)nnn2[C@@H]2O[C@H](Cn3c(-c4ccc(OCc5ccccc5)cc4)nc4cc(Cl)c(Cl)cc43)[C@@H](O)[C@H]2O)cc1 [compound 670],–,–,–,–,–,–,–,–,–,–,1,9,VEGF (VEGF-R2; [2]): 23
CCCCCCCCOc1ccc(-c2nc3c(NC)ncnc3n2C[C@H]2O[C@@H](n3nnc(C(N)=O)c3-c3ccccc3)[C@H](O)[C@@H]2O)cc1 [compound 725],–,–,–,–,–,–,–,–,–,–,10,6,–
Nc1ncnc2c1ncn2[C@@H]1O[C@H](Cn2c(-c3ccc(OCc4ccccc4)cc3)nc3ccccc32)[C@@H](O)[C@H]1O [compound 912],96,72,96,96,44,88,38,119,88,70,–,–,–
Ro-31-8220,–,–,–,–,–,–,–,–,–,–,–,–,residual activity PKCα (PKCα): 3%; residual activity MAPKAPK1b (MAPKAPK1b): 2%; residual activity GSK3β (GSK3β): 5%; residual activity MSK1 (MSK-1): 2%; residual activity S6K1 (S6K1): 6%
